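Protocol summary: plate cells (96-well), add compound at 5 concentrations, incubate 48 h, interpolate endpoints linearly. GI50: concentration for 50% inhibition of growth.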 Activity calls are given as the source filed them. Cut-off read from the data, not from the text of the source: active = GI50 up to about 1.1 µM and inactive = higher.
Assays:
Test in all cases: growth of human tumour cells (NCI), 48 h
LOX IMVI = test system: LOX IMVI
NCI-H23 = test system: NCI-H23
SF-268 = test system: SF-268
OVCAR-4 = test system: OVCAR-4
NCI-H460 = test system: NCI-H460
MOLT-4 = test system: MOLT-4
HCC 2998 = test system: HCC 2998
M14 = test system: M14
TK-10 = test system: TK-10
UACC-62 = test system: UACC-62
HL-60 = test system: HL-60
HOP-92 = test system: HOP-92
HT-29 = test system: HT-29
A549 = test system: A549
UO-31 = test system: UO-31
CAKI-1 = test system: CAKI-1
RXF 393 = test system: RXF 393
SNB-75 = test system: SNB-75

Measured: GI50

COC(=O)C(Br)C1CCc2ccccc21 (centres undefined)
inactive: LOX IMVI > 100 µM | NCI-H23 > 100 µM | SF-268 > 100 µM | OVCAR-4 53.2 µM | NCI-H460 > 100 µM | MOLT-4 68.7 µM | HCC 2998 > 100 µM | M14 > 100 µM | TK-10 > 100 µM | UACC-62 > 100 µM | HL-60 26.5 µM | HOP-92 > 100 µM | HT-29 > 100 µM | A549 > 100 µM | UO-31 > 100 µM | CAKI-1 > 100 µM

CC(=O)c1ccccc1NC(=O)C(=O)C(C(=O)c1ccccc1-c1ccccc1)C1OC(=O)c2ccccc21 (centres undefined)
inactive: LOX IMVI 18.7 µM | NCI-H23 16.5 µM | OVCAR-4 33.7 µM | NCI-H460 19.1 µM | MOLT-4 24.8 µM | HCC 2998 16.2 µM | M14 18.2 µM | TK-10 14.9 µM | UACC-62 20.7 µM | RXF 393 11.5 µM | HL-60 23.9 µM | HT-29 26.9 µM | A549 25.5 µM | UO-31 18.2 µM | CAKI-1 37.8 µM | SNB-75 25.5 µM

N#CCC(=O)Nc1cccc(C(F)(F)F)c1
inactive: LOX IMVI > 100 µM | NCI-H23 > 100 µM | SF-268 > 100 µM | OVCAR-4 > 100 µM | NCI-H460 > 100 µM | MOLT-4 > 100 µM | HCC 2998 > 100 µM | M14 > 100 µM | TK-10 > 100 µM | UACC-62 > 100 µM | RXF 393 > 100 µM | HL-60 > 100 µM | HT-29 > 100 µM | A549 > 100 µM | UO-31 > 100 µM | CAKI-1 > 100 µM | SNB-75 > 100 µM

CC(C)C1=CC(=O)C(C)(C2=NC(C)(C)CO2)c2ccccc21 (centres undefined)
inactive: NCI-H23 > 100 µM | SF-268 > 100 µM | OVCAR-4 > 100 µM | NCI-H460 > 100 µM | MOLT-4 67.3 µM | M14 > 100 µM | TK-10 > 100 µM | UACC-62 > 100 µM | RXF 393 > 100 µM | HL-60 > 100 µM | HOP-92 > 100 µM | HT-29 > 100 µM | A549 > 100 µM | UO-31 61.2 µM | CAKI-1 > 100 µM | SNB-75 96.4 µM

CCCP1(=O)C=C(C)C(=C(Cl)Cl)C(C)=C1 (centres undefined)
inactive: NCI-H23 34.7 µM | SF-268 25.9 µM | OVCAR-4 > 100 µM | NCI-H460 37.4 µM | MOLT-4 31 µM | HCC 2998 32.3 µM | M14 33.7 µM | TK-10 > 100 µM | UACC-62 44 µM | RXF 393 25.9 µM | HL-60 21.6 µM | HOP-92 24.2 µM | HT-29 43 µM | A549 33.7 µM | UO-31 46.7 µM

Cc1nnc2c3nnc(C)n3c3ccccc3n12
inactive: LOX IMVI > 100 µM | NCI-H23 > 100 µM | SF-268 > 100 µM | OVCAR-4 > 100 µM | NCI-H460 > 100 µM | MOLT-4 > 100 µM | HCC 2998 > 100 µM | M14 > 100 µM | TK-10 > 100 µM | UACC-62 > 100 µM | RXF 393 > 100 µM | HOP-92 > 100 µM | HT-29 > 100 µM | A549 > 100 µM | UO-31 > 100 µM | CAKI-1 > 100 µM | SNB-75 > 100 µM

Cc1c(Cl)ccc2c1NC(=O)C2(O)C(C(=O)c1ccccc1)c1ccccc1 (centres undefined)
inactive: LOX IMVI 44.2 µM | NCI-H23 4.98 µM | SF-268 62.7 µM | OVCAR-4 10.7 µM | NCI-H460 64.9 µM | MOLT-4 22.9 µM | HCC 2998 97.9 µM | M14 > 100 µM | TK-10 52 µM | UACC-62 19.5 µM | RXF 393 27.5 µM | HL-60 13.2 µM | HT-29 29.9 µM | A549 98.2 µM | UO-31 76.6 µM | CAKI-1 58.3 µM | SNB-75 46.7 µM

COc1c(C)n(CCO)ccc1=O
inactive: LOX IMVI > 100 µM | SF-268 > 100 µM | OVCAR-4 > 100 µM | NCI-H460 > 100 µM | MOLT-4 > 100 µM | M14 > 100 µM | TK-10 > 100 µM | UACC-62 > 100 µM | RXF 393 > 100 µM | HL-60 > 100 µM | HOP-92 > 100 µM | HT-29 > 100 µM | A549 > 100 µM | UO-31 > 100 µM | CAKI-1 > 100 µM | SNB-75 > 100 µM

COc1ccc(N2C(=O)C3c4[nH]c5ccccc5c4C4CC(C)(C)CC(C)(C)C4C3C2=O)cc1 (centres undefined)
inactive: NCI-H23 13.8 µM | SF-268 16.4 µM | OVCAR-4 10.2 µM | MOLT-4 14.4 µM | HCC 2998 33.6 µM | M14 14.3 µM | UACC-62 14.4 µM | RXF 393 12.8 µM | HL-60 42.5 µM | HOP-92 11.9 µM | HT-29 26 µM | A549 13.2 µM | UO-31 26 µM | SNB-75 16.8 µM

Cc1ccc(NC(=O)C(=O)Cc2cccc[n+]2[O-])cc1C
inactive: LOX IMVI > 100 µM | NCI-H23 > 100 µM | SF-268 > 100 µM | OVCAR-4 > 100 µM | NCI-H460 > 100 µM | MOLT-4 > 100 µM | HCC 2998 > 100 µM | M14 > 100 µM | TK-10 > 100 µM | UACC-62 > 100 µM | RXF 393 > 100 µM | HL-60 > 100 µM | HT-29 > 100 µM | A549 > 100 µM | UO-31 > 100 µM | CAKI-1 > 100 µM | SNB-75 > 100 µM

Cc1ccc(NC(=O)CCCC(=O)CC(=O)c2ccc(Br)cc2)cc1
inactive: LOX IMVI > 100 µM | NCI-H23 > 100 µM | SF-268 > 100 µM | OVCAR-4 > 100 µM | NCI-H460 > 100 µM | MOLT-4 > 100 µM | HCC 2998 > 100 µM | M14 > 100 µM | TK-10 > 100 µM | UACC-62 > 100 µM | RXF 393 > 100 µM | HOP-92 > 100 µM | HT-29 > 100 µM | A549 > 100 µM | UO-31 > 100 µM | CAKI-1 > 100 µM | SNB-75 34.4 µM

CCCCCCCCCCCCCC(=O)OCC(C[As](=O)(O)O)OC(=O)CCCCCCCCCCCCC (centres undefined)
inactive: NCI-H23 > 100 µM | SF-268 > 100 µM | OVCAR-4 > 100 µM | NCI-H460 > 100 µM | MOLT-4 > 100 µM | HCC 2998 > 100 µM | M14 > 100 µM | TK-10 > 100 µM | UACC-62 > 100 µM | RXF 393 35.3 µM | HOP-92 86.5 µM | HT-29 > 100 µM | A549 > 100 µM | UO-31 > 100 µM | CAKI-1 > 100 µM | SNB-75 > 100 µM

Brc1ccc(C[P+]2(c3ccccc3)CCCCC2)cc1.[O-][Cl+3]([O-])([O-])[O-]
inactive: LOX IMVI 63.2 µM | NCI-H23 96.2 µM | NCI-H460 > 100 µM | MOLT-4 > 100 µM | HCC 2998 36.9 µM | M14 65.9 µM | TK-10 99.5 µM | UACC-62 41.1 µM | RXF 393 > 100 µM | HL-60 20.4 µM | HT-29 38.8 µM | A549 > 100 µM | UO-31 > 100 µM | SNB-75 26.2 µM

c1cnc2c(c1)-n1cccc1C1(CCSCC1)NN2
inactive: LOX IMVI 68.7 µM | SF-268 > 100 µM | OVCAR-4 > 100 µM | NCI-H460 83.4 µM | MOLT-4 50.2 µM | HCC 2998 > 100 µM | M14 > 100 µM | TK-10 42.6 µM | HL-60 39.6 µM | HT-29 > 100 µM | A549 > 100 µM | UO-31 32.4 µM | CAKI-1 88.5 µM | SNB-75 53.5 µM

CC(=O)Nc1ccc(S(=O)(=O)N/N=C(\C)CN2C(=O)c3ccccc3C2=O)cc1
inactive: NCI-H23 > 100 µM | OVCAR-4 > 100 µM | NCI-H460 > 100 µM | MOLT-4 > 100 µM | HCC 2998 > 100 µM | M14 > 100 µM | TK-10 > 100 µM | UACC-62 > 100 µM | HL-60 > 100 µM | HT-29 > 100 µM | A549 > 100 µM | UO-31 > 100 µM | CAKI-1 > 100 µM | SNB-75 75.5 µM

NC(=O)CCC(NC(=O)C(F)(F)F)C(=O)O (centres undefined)
inactive: LOX IMVI > 100 µM | NCI-H23 > 100 µM | SF-268 > 100 µM | OVCAR-4 > 100 µM | NCI-H460 > 100 µM | MOLT-4 > 100 µM | HCC 2998 > 100 µM | M14 > 100 µM | TK-10 > 100 µM | UACC-62 > 100 µM | RXF 393 > 100 µM | HOP-92 > 100 µM | HT-29 > 100 µM | A549 > 100 µM | UO-31 > 100 µM | CAKI-1 > 100 µM | SNB-75 > 100 µM

CCOC1c2cc(C(C)C)c(O)c(O)c2[C@@]23CCCC(C)(C)C2C1OC3=O (some centres undefined)
inactive: LOX IMVI > 100 µM | NCI-H23 > 100 µM | SF-268 > 100 µM | NCI-H460 > 100 µM | MOLT-4 50 µM | HCC 2998 > 100 µM | M14 > 100 µM | TK-10 > 100 µM | UACC-62 83.2 µM | RXF 393 30.3 µM | HL-60 93.1 µM | HT-29 > 100 µM | A549 82.4 µM | UO-31 35.8 µM | CAKI-1 > 100 µM | SNB-75 47.8 µM

Source: ChEMBL document CHEMBL1201862, “PubChem BioAssay data set” (2004)
